Results on ten molecules are retold here after patent US11566039B2, “Lincosamide antibiotics and uses thereof” (President and Fellows of Harvard College, priority 2017, dated 2023).

Values after ≈ are worked out from the molar mass of the structure shown. Like-named read-outs stand apart in the source and are kept apart here.

Assay type in all cases: cell-based
One assay deals with E. faecalis ATCC 29212. Put plainly: MIC against E. faecalis ATCC 29212.
In the next assay the test system is S. aureus ATCC 29213. In words: MIC against S. aureus ATCC 29213.
A further assay deals with S. pneumoniae ATCC 49619. Put plainly: MIC against S. pneumoniae ATCC 49619.
Another assay deals with E. coli ATCC 25922. In words: MIC against E. coli ATCC 25922.
In the next assay the test system is S. pyogenes ATCC 19615. Put plainly: MIC against S. pyogenes ATCC 19615.
The next assay deals with E. coli MP-9 ΔTolC. Put plainly: MIC against E. coli MP-9 ΔTolC.
The test system of assay [1] is E. coli MP-74 LptD mutant. Put plainly: MIC against E. coli MP-74 LptD mutant.
The subject of assay [2] is S. aureus MP-549 msr(a) USA 300. In words: MIC against S. aureus MP-549 msr(a) USA 300.
A further assay deals with K. pneumoniae ATCC 10031. In words: MIC against K. pneumoniae ATCC 10031.
The subject of the next assay is H. influenzae ATCC 49247. In words: MIC against H. influenzae ATCC 49247.
Setting [3] is: Enterococcus faecalis, ATCC29212, E. faecalis ATCC 29212, read-out: MIC.
The mark [4] stands for this setting: Staphylococcus aureus, ATCC29213, S. aureus ATCC 29213, read-out: MIC.
Where [5] appears, read: Streptococcus pneumoniae, ATCC49619, S. pneumoniae ATCC 49619, read-out: MIC.
Where [6] appears, read: Escherichia coli, ATCC25922, read-out: MIC.
Setting [7] is: Streptococcus pyogenes, ATCC19615, S. pyogenes ATCC 19615, read-out: MIC.
[8] abbreviates: Staphylococcus aureus, USA300, S. aureus MP-549 msr(a) USA 300.
Setting [9] is: Klebsiella pneumoniae, ATCC10031, read-out: MIC.
Setting [10] is: Haemophilus influenzae, ATCC49247, H. influenzae ATCC 49247, read-out: MIC.

With `CCC[C@@H]1C[C@@H](C(=O)N[C@H](CNCC(F)(F)F)[C@H]2OC(SC)[C@H](O)C(O)C2O)N(C)C1` (some centres unmarked) [FSA-214099], the MIC in the assay with E. faecalis ATCC 29212 (setting [3]) is > 64 µg/mL; in the assay on S. aureus ATCC 29213 (setting [4]), 64 µg/mL (≈ 135 µM); with S. pneumoniae ATCC 49619 (setting [5]), 16 µg/mL (≈ 33.8 µM); in the assay with E. coli ATCC 25922 (setting [6]) it was > 64 µg/mL; in the assay with S. pyogenes ATCC 19615 (setting [7]), 32 µg/mL (≈ 67.6 µM).
Regarding `CCC[C@@H]1C[C@@H](C(=O)N[C@H](CN(C)c2ccc(-c3cccnc3)cc2)[C@H]2OC(SC)[C@H](O)C(O)C2O)N(C)C1` (some centres unmarked) [FSA-215009], the MIC with E. faecalis ATCC 29212 (setting [3]) was > 64 µg/mL; in the assay on S. aureus ATCC 29213 (setting [4]) it was 64 µg/mL (≈ 115 µM); with S. pneumoniae ATCC 49619 (setting [5]) it was 64 µg/mL (≈ 115 µM); with E. coli ATCC 25922 (setting [6]), > 64 µg/mL; with S. pyogenes ATCC 19615 (setting [7]) it was 32 µg/mL (≈ 57.3 µM).
As to `CCC[C@@H]1C[C@@H](C(=O)N[C@H](Cn2cc(-c3ccnc(N)n3)nn2)[C@H]2OC(SC)[C@H](O)C(O)C2O)N(C)C1` (some centres unmarked) [FSA-215011], the MIC is > 64 µg/mL with E. faecalis ATCC 29212 (setting [3]); > 64 µg/mL in the assay on S. aureus ATCC 29213 (setting [4]); 2 µg/mL (≈ 3.73 µM) in the assay with S. pneumoniae ATCC 49619 (setting [5]); > 64 µg/mL in the assay with E. coli ATCC 25922 (setting [6]); > 64 µg/mL in the assay on S. pyogenes ATCC 19615 (setting [7]).
In the case of `CCC[C@@H]1C[C@@H](C(=O)N2CCC[C@@H]2[C@H]2OC(SC)[C@H](O)C(O)C2O)N(C)C1` (some centres unmarked) [FSA-216092], the MIC (against E. coli MP-9 ΔTolC (Escherichia coli); with E. faecalis ATCC 29212 (setting [3]); in the assay on S. aureus ATCC 29213 (setting [4]); in assay [1] (Escherichia coli); in assay [2] (setting [8]); in the assay on S. pneumoniae ATCC 49619 (setting [5])) was > 64 µg/mL throughout. The MIC with K. pneumoniae ATCC 10031 (setting [9]), in the assay on E. coli ATCC 25922 (setting [6]), in the assay on H. influenzae ATCC 49247 (setting [10]) and in the assay with S. pyogenes ATCC 19615 (setting [7]) was > 64 µg/mL each time.
With `CCC[C@@H]1C[C@@H](C(=O)N[C@H]([C@H]2C=CCC2)[C@H]2OC(SC)[C@H](O)C(O)C2O)N(C)C1` (some centres unmarked) [FSA-217003], the MIC was > 64 µg/mL against E. coli MP-9 ΔTolC (Escherichia coli); 64 µg/mL (≈ 149 µM) in the assay on E. faecalis ATCC 29212 (setting [3]); 1 µg/mL (≈ 2.33 µM) in the assay on S. aureus ATCC 29213 (setting [4]); > 64 µg/mL in assay [1] (Escherichia coli); 1 µg/mL (≈ 2.33 µM) in [2] (setting [8]); 0.5 µg/mL (≈ 1.17 µM) in the assay with S. pneumoniae ATCC 49619 (setting [5]). Moreover, the MIC was > 64 µg/mL in the assay with K. pneumoniae ATCC 10031 (setting [9]), > 64 µg/mL with E. coli ATCC 25922 (setting [6]), > 64 µg/mL in the assay with H. influenzae ATCC 49247 (setting [10]) and 0.5 µg/mL (≈ 1.17 µM) in the assay with S. pyogenes ATCC 19615 (setting [7]).
Turning to `C=CC(C)(C)[C@@H](NC(=O)[C@@H]1C[C@@H](CCC)CN1C)[C@H]1OC(SC)[C@H](O)C(O)C1O` (some centres unmarked) [FSA-217009], the MIC in the assay with E. coli MP-9 ΔTolC (Escherichia coli) is > 64 µg/mL; in the assay with E. faecalis ATCC 29212 (setting [3]) it was 64 µg/mL (≈ 149 µM); with S. aureus ATCC 29213 (setting [4]), 0.25 µg/mL (≈ 0.581 µM); in assay [1] (Escherichia coli), 32 µg/mL (≈ 74.3 µM); in assay [2] (setting [8]), 0.25 µg/mL (≈ 0.581 µM); in the assay on S. pneumoniae ATCC 49619 (setting [5]), 0.5 µg/mL (≈ 1.16 µM). Further, the MIC in the assay on K. pneumoniae ATCC 10031 (setting [9]) was > 64 µg/mL; in the assay with E. coli ATCC 25922 (setting [6]) it was > 64 µg/mL; in the assay on H. influenzae ATCC 49247 (setting [10]), 64 µg/mL (≈ 149 µM); in the assay on S. pyogenes ATCC 19615 (setting [7]) it was 0.12 µg/mL (≈ 0.279 µM).
As for `C#C[C@@H](NC(=O)[C@@H]1C[C@@H](CCC)CN1C)[C@H]1OC(SC)[C@H](O)C(O)C1O` (some centres unmarked) [FSA-217031], the MIC in the assay with E. coli MP-9 ΔTolC (Escherichia coli) was > 64 µg/mL; in the assay on E. faecalis ATCC 29212 (setting [3]), 64 µg/mL (≈ 166 µM); in the assay with S. aureus ATCC 29213 (setting [4]), 64 µg/mL (≈ 166 µM); in [1] (Escherichia coli) it was > 64 µg/mL; in assay [2] (setting [8]), 32 µg/mL (≈ 82.8 µM); in the assay with S. pneumoniae ATCC 49619 (setting [5]) it was 4 µg/mL (≈ 10.3 µM). For the same molecule, the MIC in the assay on K. pneumoniae ATCC 10031 (setting [9]) is > 64 µg/mL; in the assay with E. coli ATCC 25922 (setting [6]), > 64 µg/mL; with H. influenzae ATCC 49247 (setting [10]), > 64 µg/mL; in the assay with S. pyogenes ATCC 19615 (setting [7]), 8 µg/mL (≈ 20.7 µM).
On to `CCC[C@@H]1C[C@@H](C(=O)N[C@H]([C@@H]2CCCC2N)[C@H]2OC(SC)[C@H](O)C(O)C2O)N(C)C1` (some centres unmarked) [FSA-217045a], for which the MIC with E. coli MP-9 ΔTolC (Escherichia coli) was > 64 µg/mL; with E. faecalis ATCC 29212 (setting [3]) it was > 64 µg/mL; in the assay with S. aureus ATCC 29213 (setting [4]), > 64 µg/mL; in assay [1] (Escherichia coli), > 64 µg/mL; in [2] (setting [8]) it was > 64 µg/mL; with S. pneumoniae ATCC 49619 (setting [5]) it was 64 µg/mL (≈ 144 µM). Moreover, the MIC in the assay with K. pneumoniae ATCC 10031 (setting [9]), in the assay with E. coli ATCC 25922 (setting [6]), in the assay with H. influenzae ATCC 49247 (setting [10]) and in the assay on S. pyogenes ATCC 19615 (setting [7]) was > 64 µg/mL in each case.
For `CCC[C@@H]1C[C@@H](C(=O)N[C@H]([C@@H]2CCCC2N)[C@H]2OC(SC)[C@H](O)C(O)C2O)N(C)C1` (some centres unmarked) [FSA-217045b], the MIC is >64 µg/mL against E. coli MP-9 ΔTolC; >64 µg/mL in the assay with E. faecalis ATCC 29212 (E. faecalis ATCC 29212); >64 µg/mL against S. aureus ATCC 29213 (S. aureus ATCC 29213); >64 µg/mL in [1]; >64 µg/mL in [2] (S. aureus MP-549 msr(a) USA 300); 32 µg/mL (≈ 71.8 µM) with S. pneumoniae ATCC 49619 (S. pneumoniae ATCC 49619). Also, the MIC in the assay with K. pneumoniae ATCC 10031, against E. coli ATCC 25922, against H. influenzae ATCC 49247 (H. influenzae ATCC 49247) and in the assay with S. pyogenes ATCC 19615 (S. pyogenes ATCC 19615) was >64 µg/mL each time.
In the case of `CCC[C@@H]1C[C@@H](C(=O)N[C@H](CNC23CC(C2)C3)[C@H]2OC(SC)[C@H](O)C(O)C2O)N(C)C1` (some centres unmarked) [FSA-2140836], the MIC in the assay on E. faecalis ATCC 29212 (setting [3]), in the assay with S. aureus ATCC 29213 (setting [4]), in the assay with S. pneumoniae ATCC 49619 (setting [5]), in the assay with E. coli ATCC 25922 (setting [6]) and in the assay with S. pyogenes ATCC 19615 (setting [7]) was > 64 µg/mL each time.
